From patent US20250289812A1, “COMPOUND FOR TREATING THROMBOTIC DISEASES” (SHANGHAI INSTITUTE OF MATERIA MEDICA, CHINESE ACADEMY OF …, priority 2020, published 2025)

Assays:
[1] = system: platelets on solid phase fibrinogen; assay: Effect of compound on platelet stretching on solid phase fibrinogen; format: cell-based; settings: 1 h, washed platelets, incubated 60 min at 37° C., read-out: Concentration range for compounds that inhibit platelet stretching on fibrinogen
Description: 1. Experimental method: Firstly, 50 μl fibrinogen (0.1M, diluted with pH 8.3 sodium bicarbonate, 20 μg/ml) was added to 96-well plate, and coated overnight at 4° C. After being washed by PBS for 3 times in the morning, sealed with bovine serum albumin (20 mg/ml) at 37° C. for 60 min, then 100 μl of washed platelet suspension was taken, and added into compounds in each group to make the final concentration 250 μM, and incubated at 37° C. for 60 min. 50 μl of incubated platelets were added to 96-well plate, adhered in a temperature box at 37° C. for 60 min, unadhered platelets were removed by PBS washing for 3 times, and adhered platelets were stably fixed with 4% paraformaldehyde, and washed with PBS for 3 times. Then the platelet membrane was perforated with 0.5% Triton X-100, and then the platelet was stained with 0.5 μg/ml phalloidin-rhodamine for 60 min at 37° C. and washed 3 times (10 min each) with PBS.
2. Experimental results and conclusions: The concentration of different compounds on platelet stretching on fibrinogen was shown in Table 3, and the inhibitory effect of some compounds on platelet stretching was shown in FIG. 2.

[2] = molecular target: Src kinase SH3 domain protein (Homo sapiens (Human), UniProt P12931); assay: Surface plasmon resonance (SPR) determination of dissociation constants with SH3 protein; format: binding; settings: SH3 protein coupled to CM5 chip
Description: 1. Experimental method: Surface plasmon resonance test was carried out on BIACORE T200 instrument (GE Company). Fresh purified grade Src kinase SH3 domain protein (concentration 2 mg/ml) was diluted to 0.1 mg/ml with 10 mM CH3COONa (pH 4.2) and then SH3 protein was coupled to the CM5 chip by standard amino coupling methods. The compounds of the invention were diluted in a gradient using a buffer solution (20 mM Tris-HCl, PH 8.0, 100 mM NaCl) for 60 seconds and dissociated for 120 seconds at a flow rate of […], respectively. The changes in response values over time were recorded and analyzed by the BIA Evaluation Software (GE Healthcare) program to obtain the dissociation constants KD for the different compounds with SH3 protein.
2. Experimental results and conclusions: The dissociation constants KD of different compounds and SH3 protein were described in Table 2, and the surface plasmon resonance (SPR) experimental results of some compounds were shown in FIG. 1.

Chain of Src kinase SH3 domain protein (P12931 whole entry, looked up, the tested form may be a part): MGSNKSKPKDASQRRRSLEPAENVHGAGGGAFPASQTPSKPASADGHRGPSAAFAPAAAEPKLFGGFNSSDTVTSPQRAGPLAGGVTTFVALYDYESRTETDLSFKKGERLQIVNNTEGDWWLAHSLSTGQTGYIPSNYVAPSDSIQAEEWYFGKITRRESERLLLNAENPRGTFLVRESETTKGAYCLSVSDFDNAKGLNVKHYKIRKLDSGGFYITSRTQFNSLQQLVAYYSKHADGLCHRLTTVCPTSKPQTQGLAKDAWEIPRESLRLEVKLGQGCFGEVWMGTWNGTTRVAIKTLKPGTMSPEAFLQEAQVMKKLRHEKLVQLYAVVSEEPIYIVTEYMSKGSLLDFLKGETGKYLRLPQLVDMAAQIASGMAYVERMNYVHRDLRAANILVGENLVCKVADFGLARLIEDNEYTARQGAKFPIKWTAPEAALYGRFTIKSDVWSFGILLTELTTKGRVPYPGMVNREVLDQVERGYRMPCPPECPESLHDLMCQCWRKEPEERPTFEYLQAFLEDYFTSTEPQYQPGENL

Compound | minimal effective concentration [1] | Kd [2]
CCOC(=O)c1c(CNC(=N)N)sc2cc(-c3cccc4ccccc34)c(Oc3ccncc3)cc12 [SYY-C129] | 10 to 100 µM | < 1 µM
CCOC(=O)c1c(CNC(=N)N)sc2cc(-c3cccc4ccccc34)c(C3=CCCc4ccccc43)cc12 [SYY-C130] | 100 to 250 µM | 10 to 100 µM
CCOC(=O)c1c(CNC(=N)N)sc2cc(-c3cccc4ccccc34)c(C3CCCc4ccccc43)cc12 (stereo not drawn) [SYY-C131] | 100 to 250 µM | 10 to 100 µM
